According to patent publication US8258100B2, “Ligand/lytic peptide methods of use” (Board of Supervisors of Louisiana State University and …, priority 1997, dated 2012):
Where a SMILES comes first, the peptide text is derived from it. Where no end group is shown, it is not given here.

Columns and labels:
LH receptors = target: T1, LH receptors (Bos taurus, UniProt Q28005); test: binding of bLH fragment to LH receptors on granulosa cells; design: species or system bovine; conditions: data not shown
T1 construct: endogenous in cells; host or cells: primary bovine granulosa cells from pre-ovulatory follicles
T1 sequence (Q28005 27-701): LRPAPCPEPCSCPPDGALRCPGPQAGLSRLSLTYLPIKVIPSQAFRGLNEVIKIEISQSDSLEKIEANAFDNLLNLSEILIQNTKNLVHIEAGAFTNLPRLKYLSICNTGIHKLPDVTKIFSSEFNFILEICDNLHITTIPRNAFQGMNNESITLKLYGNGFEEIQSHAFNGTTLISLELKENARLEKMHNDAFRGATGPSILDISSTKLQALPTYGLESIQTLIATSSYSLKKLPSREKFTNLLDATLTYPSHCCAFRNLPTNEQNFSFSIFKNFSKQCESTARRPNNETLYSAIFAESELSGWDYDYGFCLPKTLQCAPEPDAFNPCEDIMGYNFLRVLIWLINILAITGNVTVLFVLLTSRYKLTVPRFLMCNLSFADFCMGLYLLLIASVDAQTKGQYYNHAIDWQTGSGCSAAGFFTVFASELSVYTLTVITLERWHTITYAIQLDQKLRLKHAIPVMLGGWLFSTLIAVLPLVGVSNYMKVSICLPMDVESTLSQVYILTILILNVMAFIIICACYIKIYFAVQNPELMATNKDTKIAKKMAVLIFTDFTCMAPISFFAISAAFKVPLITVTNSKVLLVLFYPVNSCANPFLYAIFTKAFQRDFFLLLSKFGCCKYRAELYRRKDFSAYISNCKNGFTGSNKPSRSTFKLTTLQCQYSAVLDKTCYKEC
Excerpt: (§1) Stimulation of target cell hormone production was not required for cell lysis.

[1] = system: LH receptors on the target granulosa cells; test: steroid hormone production by granulosa cells; format: cell-based, bovine; conditions: data not shown
Excerpt: as §1

Diatraea saccharalis = test: fertility of sugar cane borer after inoculation of late-stage pupae; format: in vivo; conditions: 10 pupae inoculated, 1.0 μL of 1.35 mM peptide in saline
Protocol: Late-stage Diatraea saccharalis (sugar cane borer) pupae were inoculated with 1.0 μL of saline solution containing 1.35 mM concentration of peptide as stated, or saline alone as control. The pupae were allowed to complete metamorphosis. […] Adult female moths were allowed to mate with treated males, and then lay eggs. The viability of the eggs was measured by counting the number hatching into larvae.

[2] = system: Sprague-Dawley female rats; test: Sprague-Dawley female rats, single intravenous treatment, necropsy at 48 or 96 hours, PAS stain of pituitary; format: in vivo, rat; conditions: D-hecate 674 μg, GnRH 334 μg, GnRH-hecate 1 mg
Protocol: Eight sexually mature, Sprague-Dawley female rats were randomly assigned to one of eight treatments. Each group of rats received a single treatment intravenously, as described below. Rats were sacrificed and necropsied either 48 or 96 hours after treatment. The ovaries, uterus, pancreas, liver, spleen, lungs, heart, thyroid, and adrenal glands were fixed in 10% buffered formalin; sectioned; and stained with H&E (hematoxylin and eosin) stain; except that the pituitary glands were stained with PAS (periodic acid-Schiff) stain with no counter-stain. The treatments were selected so that each animal received an equimolar amount of the compound with which it was treated.

GnRH receptor = target: T2, GnRH receptor (Rattus norvegicus, UniProt P30969); test: displacement of radiolabelled monoiodinated-GnRH from rat pituitary membranes; format: binding
T2 construct: specifically displaced radiolabelled monoiodinated-GnRH from rat pituitary membranes; from tissue; host or cells: rat pituitary membranes
T2 sequence (P30969 1-327): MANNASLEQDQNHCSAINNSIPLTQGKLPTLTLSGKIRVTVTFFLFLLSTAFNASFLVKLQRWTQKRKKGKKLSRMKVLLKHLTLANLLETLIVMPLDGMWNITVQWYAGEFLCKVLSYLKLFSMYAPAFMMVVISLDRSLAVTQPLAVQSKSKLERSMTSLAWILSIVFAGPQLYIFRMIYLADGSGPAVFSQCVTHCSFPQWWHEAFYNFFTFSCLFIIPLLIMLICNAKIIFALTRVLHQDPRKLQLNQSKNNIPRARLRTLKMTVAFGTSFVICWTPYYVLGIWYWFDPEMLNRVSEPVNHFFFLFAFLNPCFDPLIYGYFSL
Excerpt: We also synthesized D-Lys^6GnRH (SEQ. ID NO. 13), so that hecate could be conjugated to the D-Lys^6, a position that could minimize interference with binding of the GnRH domain to the GnRH receptor. These synthetic peptides specifically displaced radiolabelled monoiodinated-GnRH from rat pituitary membranes.

[3] = system: female New Zealand rabbits; test: mature female New Zealand rabbits, intravenous GnRH-hecate, GnRH challenge day 46, necropsy day 47; format: in vivo, rabbit; conditions: 5 or 10 mg IV
Protocol: Seven sexually mature female New Zealand rabbits were injected intravenously with saline containing GnRH-hecate as follows:
Forty-six days later all rabbits were injected intramuscularly with 100 μg GnRH. Blood samples were collected at 0, 1, 4, and 24 hours, and LH and FSH levels in the blood samples were measured by radioimmunoassay. […] The rabbits were sacrificed the next day (day 47) for postmortem histological analysis. […] Ovarian and pituitary weights were reduced by the 10 mg GnRH-hecate treatment.

[4] = system: sexually immature female rats; test: immature female rats, intravenous GnRH-hecate or GnRH then hecate, histology and immunocytochemistry at 14 days; format: in vivo, rat; conditions: as E29
Protocol: Another set of experiments was performed to study the in vivo effects of the GnRH-hecate conjugate on female rats and rabbits. The ovaries, uterus, oviducts, adrenals, spleen, thyroids, pancreas, liver, lungs, and heart were processed for histological analysis. […] The immunocytochemical staining procedures we used followed generally the procedures of M. Rahmanian et al., “Histological and immunocytochemical characterization of pituitary cell types in ponies,” Proc. 13th Soc. Equine Nutrition & Phys. Symp., pp. 348-349 (1993); M. Rahmanian et al., “Immunocytochemical localization of luteinizing hormone and follicle-stimulating hormone in the equine pituitary,” J. Anim. Sci., vol. 76, pp. 839-846 (1998); M. Rahmanian et al., “Immunocytochemical localization of prolactin and growth hormone in the equine pituitary,” Animal Sci., vol. 75, pp. 3010-3018 (1997); and P. Melrose et al., “Comparative topography of the immunoreactive alpha-melanocyte-stimulating hormone neuronal system in the brains of horses and rats,” Brain Beh. & Evol., vol. 32, pp. 226-235 (1988).
Brains were serially sectioned on a Vibrotome from the level of the diagonal band of Broca to the mammillary body. […]

female rabbits = test: mature female rabbits, intravenous GnRH-hecate, GnRH challenge day 6, sacrifice day 7; format: in vivo, rabbit; conditions: 10 mg IV
Protocol: Nine sexually mature female rabbits were injected intravenously with saline containing 0 mg (n=4) (Treatment 46) or 10 mg GnRH-hecate (n=5) (Treatment 47). Rabbits were injected intramuscularly with GnRH on day 6 posttreatment. Blood samples were collected for radioimmunoassay of LH and FSH as described above, and the animals were sacrificed on day 7 post-treatment. […] The effects of GnRH-hecate on CNS morphology and immunocytochemical results were similar to those described above in Examples 34-45. Again, the effects were more pronounced on GnRH neurons than on staining of pituitary gonadotropes.

[5] = system: sexually immature female rats; test: immature female rats, intravenous GnRH-hecate dose series; format: in vivo, rat; conditions: 0.1 to 1.5 mg IV, 24 hours or 14 days
Protocol: Sexually immature (33 day old) female rats (randomly allocated into groups of three) were injected intravenously with saline or GnRH-hecate in saline as follows:
Animals were sacrificed at 24 hours or at 14 days after treatment. […] In the rats sacrificed fourteen days after treatment, 66% and 87% of the GnRH-receptor-containing neurons were abnormal in the rats that had received 1.0 and 1.5 mg of GnRH-hecate, respectively. Axonal degeneration in the 1.5 mg GnRH-hecate group was accompanied by over 90% reduction in median eminence staining for GnRH.

bovine granulosa cells = test: in vitro lysis of bovine granulosa cells; format: cell-based; conditions: 1 μM
Excerpt: We also studied in vitro lysis of bovine granulosa cells with GnRH-hecate conjugate and with hecate-bLH conjugate. Granulosa cells were isolated from bovine pre-ovulatory follicles. (Granulosa cells are hormonally active cells with numerous LH receptors.) Our experiments with granulosa cells were otherwise generally similar to those described above for Examples 24-31.

DU145 cells = test: in vitro lysis of human prostate cancer cells, Trypan blue exclusion; format: cell-based; conditions: 22 hours; GnRH-hecate 50 μM; free hecate 30 μM; hecate-bLH 90 or 60 μM
Excerpt: (§2) LNCaP FGC and DU145 human prostate cancer cell lines were purchased from the American Type Culture Collection (ATCC, Rockville Md.), ATCC accession numbers CRL 1740 and HTB-81, respectively. The LNCaP FGC adenocarcinoma cell line was originally obtained from a person. LNCaP FGC cells are sensitive to dihydrotestosterone and to estrogens (A+). The DU145 carcinoma was originally isolated from the brain of a person with metastatic carcinoma of the prostate; this cell line is not sensitive to steroid hormones (A−).
(§3) Cells were detached from culture flasks, and 1000 cells/well were transferred to 24 well culture plates. The cells were incubated for 24 hours with 10% calf serum. Cells were subsequently incubated without serum for 48 hours. Cells were then incubated for 22 hours with one of the following treatments:
(§4) Trypan blue exclusion was used to assess viability of the cells after treatment. […] However, treatment with a lytic peptide alone may not be selective in vivo unless specific cell types are separately stimulated, for example by hormones controlling their activity.

LNCaP FGC cells = test: as above; format: cell-based
Excerpt: as §2, §3, §4

[6] = system: bovine small luteal cells; test: in vitro lysis of bovine small luteal cells (Trypan Blue exclusion, lactic dehydrogenase release); format: cell-based, cattle; conditions: 22 hr
Protocol: We studied in vitro lysis of bovine luteal cells with GnRH-hecate conjugate and with hecate-bLH conjugate (SEQ. ID NO. 12). (The bLH component of the conjugate is a 15-mer fragment of the beta chain of luteinizing hormone, SEQ. ID NO. 11). Small luteal cells were collected from cattle corpora lutea post-slaughter.
Small luteal cells in culture were incubated with one of the following treatments for 22 hours, and were then examined for viability using Trypan Blue exclusion and release of lactic dehydrogenase.

## 15-mer fragment of the bLH subunit: 15-mer fragment of the beta chain of luteinizing hormone, receptor binding site (SEQ. ID NO. 11) (SYAVALSCQCALCRR)
LH receptors
  binding to LH receptors on granulosa cells: specifically bound to LH receptors
[1]
  production of steroid hormones: did not initiate the production of steroid hormones

## CC(C)C[C@@H](NC(=O)[C@@H](C)NC(=O)[C@@H](CCCCN)NC(=O)[C@@H](CCCCN)NC(=O)[C@@H](CC(C)C)NC(=O)[C@@H](C)NC(=O)[C@@H](CCCCN)NC(=O)[C@@H](CCCCN)NC(=O)[C@@H](CC(C)C)NC(=O)[C@@H](CCCCN)NC(=O)[C@@H](CCCCN)NC(=O)[C@@H](CC(C)C)NC(=O)[C@@H](C)NC(=O)[C@@H](CCCCN)NC(=O)[C@@H](CCCCN)NC(=O)[C@@H](CC(C)C)NC(=O)[C@@H](C)NC(=O)[C@@H](CCCCN)NC(=O)[C@@H](CC(C)C)NC(=O)[C@@H](C)NC(=O)[C@@H](CC(C)C)NC(=O)[C@@H](C)NC(=O)[C@H](N)Cc1ccccc1)C(=O)O [D-hecate, reference compound] (HELM PEPTIDE1{[dF].[dA].[dL].[dA].[dL].[dK].[dA].[dL].[dK].[dK].[dA].[dL].[dK].[dK].[dL].[dK].[dK].[dA].[dL].[dK].[dK].[dA].[dL]}$$$$V2.0)
Diatraea saccharalis
  pupae completing metamorphosis into adult moths: Six
[2]
  gross lesions in the organs: No gross lesions

## D-Lys^6GnRH-hecate: hecate conjugated to the D-Lys^6 of D-Lys^6GnRH
GnRH receptor; rat pituitary membranes
  displacement of radiolabelled monoiodinated-GnRH, as measured by cpm: comparable to (and actually slightly greater than) displacement by native mammalian GnRH

## D-Lys^6GnRH: GnRH analog with D-Lys at position 6 (SEQ. ID NO. 13)
GnRH receptor; molar basis over a 1000-fold concentration range (n=6)
  displacement of radiolabelled peptide relative to equimolar native GnRH: 187%±8%

## QHWSYGLRPGFALALKALKKALKKLKKALKKAL [GnRH-hecate]
Diatraea saccharalis
  pupae completing metamorphosis into adult moths: Eight
[3]
  hippocampus and other areas of the brain containing high concentrations of GnRH: not discernibly affected
[4]
  C1 and C3 fields of the hippocampus: histological damage to cells
  pathological changes in other tissues: No pathological changes were noted in any other tissues
Female rabbits
  effects on peripheral tissues or pituitary weight: No effects were noticed
[5]
  VP staining in the CNS: not altered
[2]
  gross lesions in the organs: No gross lesions were noted in the organs of any of the four animals, other than the pituitary

## hecate-bLH: conjugate of hecate and a 15-mer fragment of the beta chain of luteinizing hormone (SEQ. ID NO. 12) (FALALKALKKALKKLKKALKKALSYAVALSCQCALCRR)
Bovine granulosa cells
  levels of lactic dehydrogenase released: significantly higher than the levels of enzyme released following treatment with 1 μM hecate alone
  number of target cells killed relative to hecate alone: about twice the number of target cells as did hecate alone
DU145 cells
  killing of cells (viability): killed almost all DU145 cells
LNCaP FGC cells; 22 hours, GnRH-hecate 50 μM, hecate-bLH 90 or 60 μM
  killing of cells (viability): had little effect
LNCaP FGC cells; FSH pre-treatment, followed by 90 μM hecate-bLH
  sensitivity of cells to conjugate: more sensitive to the hecate-bLH conjugate than those that were not pre-treated
[6]; 10, 5, 1 μM
  number of cells killed relative to hecate alone at the same concentrations: approximately twice the number of cells as were killed by hecate alone
[6]; versus hecate alone
  lactic dehydrogenase activity (cell killing): killed a significantly greater number of cells than did hecate alone
[6]; all three doses (10, 5, 1 μM)
  cell death of small luteal cells versus hecate alone: significant increases in cell death as compared to treatment with hecate alone
